Bounds are passed on as bounds.

For data set [1] the following is noted: in vivo; cited from earlier work.
For data set [2], the system named is Vγ9JPVδ2 T cells. Description: IFNγ ELISpot with Vγ9JPVδ2 T cell clone Bob and spinner HeLa antigen presenting cells. The format is cell-based, human. The settings on record: 1,000 Vγ9JPVδ2 T cells, 25,000 spinner HeLa cells per well, 6 hours; FIG. 1A. As for the experimental part:
(§1) γδ T cells were isolated from human peripheral blood using a magnetic separation kit (TCR γ/δ Microbead Kit and MS columns from Miltenyi Biotech). Once isolated, cells were resuspended in T cell medium (RPMI supplemented with 100 U/ml penicillin, 100 μg/ml streptomycin, 10% FCS, 10% T-STIM (BD Biosciences), 200 U/ml Proleukin (Chiron)) containing 2×10^6 γ-irradiated PMBC/ml from three individuals and 2 μg/ml PHA. Cells were maintained with T cell medium, and restimulated with mixed irradiated PBMC and PHA every three weeks. For cloning, the same mix was used to grow cells by limiting dilution in 96-well U-boftomed plates. Cells that grew were confirmed to be γδ T cells with Vγ9 antibody.
(§2) γδ T cells were washed in RPMI and incubated overnight in R10 at 37° C. 96-well nitrocellulose plates (Millipore) were incubated overnight at 4° C. with 15 μg/ml antihuman-IFN-γ primary antibody (clone 1-D1K; Mabtech, Sweden). The plates were then washed twice with RPMI and blocked with R10 for 3 hours at 37° C. R10 was decanted by inversion and assays applied to each well before incubation at 37° C. as detailed below. Assays were terminated by washing once in water, followed by 5 washes in PBS. Secondary antibody (anti-human-IFN-γ-Biotin antibody clone 7-B6-1; Mabtech) was applied at 1 μg/ml and the plate incubated for 100 minutes at room temperature (RT). […]

In data set [3] the test system is human PBMC. Description: TNFα ELISA on direct ex vivo human PBMC exposed to nBPs. The format is cell-based. The following applies: 10 μM risedronate or 100 μM pamidronate, 12 hours, FIG. 1B. As for the experimental part: γδ T cells were washed in RPMI and incubated overnight in R10 at 37° C. 96-well nitrocellulose plates (Millipore) were incubated overnight at 4° C. with 15 μg/ml antihuman-IFN-γ primary antibody (clone 1-D1K; Mabtech, Sweden). The plates were then washed twice with RPMI and blocked with R10 for 3 hours at 37° C. R10 was decanted by inversion and assays applied to each well before incubation at 37° C. as detailed below. Assays were terminated by washing once in water, followed by 5 washes in PBS. Secondary antibody (anti-human-IFN-γ-Biotin antibody clone 7-B6-1; Mabtech) was applied at 1 μg/ml and the plate incubated for 100 minutes at room temperature (RT). The plate was washed 6 times with PBS before application of Streptavidin-ALP (1:1000 in PBS; Mabtech) for 40 minutes at RT. […] A TNFα ELISA kit (Peprotech) was used in accordance with the manufacturers instructions.
In FIG. 1 (B), nBPs are shown to stimulate TNFA production from direct ex vivo human PBMC. […] 60 μl aliquots were removed at the specified time and added to TNFα ELISA assays.
For orientation: An ELISA detects its analyte on a solid surface through an enzyme-linked reagent.

Data set [4] relates to human PBMC depleted of γδ T cells. Description: TNFα ELISA on PBMC after magnetic depletion of γδ T cells. Type of data set: cell-based. The following applies: 100 μM pamidronate, 10 μM risedronate; FIG. 2A, 2B. How it is done:
γδ T cells were washed in RPMI and incubated overnight in R10 at 37° C. 96-well nitrocellulose plates (Millipore) were incubated overnight at 4° C. with 15 μg/ml antihuman-IFN-γ primary antibody (clone 1-D1K; Mabtech, Sweden). The plates were then washed twice with RPMI and blocked with R10 for 3 hours at 37° C. R10 was decanted by inversion and assays applied to each well before incubation at 37° C. as detailed below. Assays were terminated by washing once in water, followed by 5 washes in PBS. Secondary antibody (anti-human-IFN-γ-Biotin antibody clone 7-B6-1; Mabtech) was applied at 1 μg/ml and the plate incubated for 100 minutes at room temperature (RT). The plate was washed 6 times with PBS before application of Streptavidin-ALP (1:1000 in PBS; Mabtech) for 40 minutes at RT. […]
10^8 human PBMC were incubated with 10 μg/ml of anti-human pan-γδ antibody for 30 minutes on ice. […] The success of depletion was determined by FACS analysis with the anti-CD3 and pan-γδ antibodies detailed above, and was >95% efficient in all cases shown.
5×10^6 PBMC from a healthy donor+/−magnetic depletion of γδ T cells were suspended in 1 ml of R10+/−antigen in 75×5 mm FACS tubes at 37° C. and 5% CO2 for the times shown. […] The percentage of cytokine positive cells (fluorescence intensity>20) is shown in the upper right corner of each panel.

The test system of data set [5] is Vγ9-expressing T cells. Description: Intracellular cytokine staining (ICS) of fresh PBMC exposed to nBPs. Type of data set: cell-based, human. The settings on record: for IL6 and TNFα production by Vγ9-expressing cells by ICS: 100 μM pamidronate, FIG. 2D. How it is done:
10^6 fresh PBMC were incubated in FACS tubes with brefeldin A (10 μg/ml R10) for 5 hours after pulsing with relevant antigens for 1 hour. The cells were then washed, permeabilised in 20% FACSLyse (BD Biosciences), washed twice in ice cold PBS/0.1% BSA and stained on ice with pre-titred APC-conjugated anti-IFNγ, anti-TNFα and anti-IL-2 and PE-conjugated anti-Vγ9 mAbs for 20 minutes. For single cytokine analysis (FIG. 2D), cells were stained with PE-conjugated anti-IL6, APC-conjugated anti-TNFα and FITC-conjugated anti-Vγ9 antibodies. In each case, cells were then washed, resuspended in PBS & analysed immediately.
5×10^6 PBMC from a healthy donor+/−magnetic depletion of γδ T cells were suspended in 1 ml of R10+/−antigen in 75×5 mm FACS tubes at 37° C. and 5% CO2 for the times shown. 60 μl of cell supernatant was removed and applied to TNFα ELISA plates in duplicate and developed according to the manufacturers instructions. Standard deviation from the mean of the two replicate ELISAs is shown although, in most cases, this error is smaller than the plot symbol. In (C), exposure to nBPs activates PBMC that express a Vγ9 receptor and not other T cells or B cells. 10^6 fresh human PBMC were exposed to R10 (top panel) or R10+10 μM risedronate (bottom panel) for 6 hours in an intracellular cytokine staining (ICS) assay. Plots show all the cells in the lymphocyte gate stained for PE-Vγ9 and APC-cytokines (TNFα, IL2, and IFNγ). Exposure to risedronate induces cytokine production only in lymphocytes that express a Vγ9 TCR. The percentage of total lymphocytes in the Vγ9^+ cytokine^+ gate shown is indicated in the upper right of each panel. Almost 10% of the lymphocytes expressing a Vγ9 receptor are activated by exposure to nBPs. […] Plots are gated to show only Vγ9-expressing lymphocytes. […] The percentage of cytokine positive cells (fluorescence intensity>20) is shown in the upper right corner of each panel.

Data set [6] deals with circulating γδ T cells. The following applies: cited from earlier work.
In data set [7] the test system is Vγ9JPVδ2 T cell clones. Description: TNFα ELISA on Vγ9JPVδ2 T cell clones activated by risedronate. The following applies: 10 μM risedronate, 10^6 T cells, clones P, M and Bob; FIG. 1C. Type of data set: cell-based, human. How it is done: as §1, §2
Data set [8] concerns γδ T cell. The settings on record: cited from earlier work.

Regarding `O=P(O)(O)C(Cl)(Cl)P(=O)(O)O` [clodronate, disodium clodronate], the acute phase response entry in data set [1] is on record as “has not been observed”.
Turning to `NCCC(O)(P(=O)(O)O)P(=O)(O)O` [pamidronate, disodium pamidronate], in data set [2], the “activation of clonal Vγ9JPVδ2 T cells by IFNγ ELISpot” value is given as “activate”. In addition, in data set [3], the “TNFα production from direct ex vivo human PBMC” value is “large amounts of TNFα”. The “TNFα production by PBMC after magnetic depletion of γδ T cells” value in data set [4] is listed as “removed the ability of PBMC to produce TNFα”. Besides, the “IL6 and TNFα production by Vγ9-expressing cells by ICS” value in data set [5] (10 μM risedronate) is “make both IL6 and TNFα”. Moreover, the “number of circulating γδ T cells in patients with acute phase reaction” value in data set [6] (1 and 3 weeks post-infusion) was “substantial increase”. In data set [6] (one patient, expanded from 4.6%), the “γδ T cells as % of CD3+ cells post-infusion” value is listed as 70%.
`O=P(O)(O)C(O)(Cc1cccnc1)P(=O)(O)O` [risedronate, risedronate sodium]: the “activation of clonal Vγ9JPVδ2 T cells by IFNγ ELISpot” value in data set [2] was “activate”. Moreover, the “TNFα production from direct ex vivo human PBMC” value in data set [3] is on record as “large amounts of TNFα”. In addition, the “activation (TNFα production) of Vγ9JPVδ2 T cell clones” value in data set [7] was “extremely rapid”. Also, the “TNFα production by PBMC after magnetic depletion of γδ T cells” value in data set [4] is reported as “removed the ability of PBMC to produce TNFα”. Moreover, the “lymphocytes expressing a Vγ9 receptor activated (cytokine+ by ICS)” value in data set [5] (10 μM risedronate (100 μM pamidronate, data not shown), 6 hours, TNFα, IL2, IFNγ staining, FIG. 2C) is approximately 10%. In addition, the “expression of the Vγ9 TCR” value in data set [5] (10 μM risedronate, 6 hours, ICS) is reported as “lowers the expression of the Vγ9 TCR”. Also, the “IL6 and TNFα production by Vγ9-expressing cells by ICS” value in data set [5] (10 μM risedronate) is “make both IL6 and TNFα”. For the same compound, in data set [8], the “concentration stimulating γδ T cell expansion from human PBMC” value was not below 10 nM.
On to `O=P(O)(O)C(Sc1ccc(Cl)cc1)P(=O)(O)O` [tiludronate], for which the acute phase response entry in data set [1] is reported as “has not been observed”.
Turning to `CC(O)(P(=O)(O)O)P(=O)(O)O` [etidronate, disodium etidronate], the acute phase response entry in data set [1] is listed as “has not been observed”.
